From US8012984B2, “Substituted pyrazinone melanin concentrating hormone receptor-1 antagonists and methods” (Bristol-Myers Squibb Company, priority 2007, dated 2011) come the findings set out here.

The term Ki denotes a dissociation constant, usually derived from enzyme kinetics or from competition with a known ligand. Higher therefore signals weaker binding.

The target in assay [1] is T1, human melanin concentrating hormone receptor (MCHR1) (Homo sapiens, UniProt Q99705, A5T/E4Q).
T1 construct: expressed in transfected cells; host or cells: HEK-293 (stably transfected), membranes
T1 sequence (Q99705 whole entry E4Q/A5T): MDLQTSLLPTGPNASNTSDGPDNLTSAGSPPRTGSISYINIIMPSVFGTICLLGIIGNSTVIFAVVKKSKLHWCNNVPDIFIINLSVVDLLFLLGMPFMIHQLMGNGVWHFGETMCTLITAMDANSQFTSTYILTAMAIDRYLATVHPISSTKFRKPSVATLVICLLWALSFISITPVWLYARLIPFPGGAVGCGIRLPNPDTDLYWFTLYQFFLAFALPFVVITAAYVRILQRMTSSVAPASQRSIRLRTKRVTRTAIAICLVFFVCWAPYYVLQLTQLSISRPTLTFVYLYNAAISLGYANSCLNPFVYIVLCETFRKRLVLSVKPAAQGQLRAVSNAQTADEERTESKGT
The assay is described as follows: Radioligand binding assay for assessment of MCHR1 activity. The settings on record: membranes of HEK-293 cells expressing mutated hMCHR1; competition with [125I]-MCH. As for the experimental part: Compounds of Formula I were initially characterized in an in vitro binding assay to determine their Ki or ability to antagonize binding of a peptide agonist to the human melanin concentrating hormone receptor (MCHR1).
Membranes from stably transfected HEK-293 cells expressing a mutated (E4Q, AST) hMCHR1 receptor were prepared by dounce homogenization and differential centrifugation. Binding experiments were carried out with 0.5-1.0 ug of membrane protein incubated in a total of 0.2 ml in 25 mM HEPES (pH 7.4) with 10 mM MgCl2, 2 mM EGTA, and 0.1% BSA (Binding Buffer) for 90 min. For competition binding assays, reactions were carried out in the presence of with 0.06-0.1 nM [Phe^n, [^125I]Tyr^19]-MCH and increasing concentrations of unlabeled test molecules. Reactions were terminated by rapid vacuum filtration over 96 well-GFC Unifilter plates pre-coated with 0.075 ml binding buffer containing 1% BSA, and washed 3 times with 0.4 ml of Phospho-buffered Saline (pH 7.4) containing 0.01% TX-100. Filters were dried; 0.05 ml microscint 20 was added to each well and radioactivity was subsequently quantified by scintillation counting on a TopCount™ microplate scintillation counter (Packard). Inhibitory constants were determined by nonlinear least squares analysis using a four parameter logistic equation.

Assay [2] deals with T2, MCHR1 (Rattus norvegicus, UniProt P97639).
T2 construct: from tissue; host or cells: whole animal: male Sprague Dawley rats
T2 sequence (P97639 whole entry): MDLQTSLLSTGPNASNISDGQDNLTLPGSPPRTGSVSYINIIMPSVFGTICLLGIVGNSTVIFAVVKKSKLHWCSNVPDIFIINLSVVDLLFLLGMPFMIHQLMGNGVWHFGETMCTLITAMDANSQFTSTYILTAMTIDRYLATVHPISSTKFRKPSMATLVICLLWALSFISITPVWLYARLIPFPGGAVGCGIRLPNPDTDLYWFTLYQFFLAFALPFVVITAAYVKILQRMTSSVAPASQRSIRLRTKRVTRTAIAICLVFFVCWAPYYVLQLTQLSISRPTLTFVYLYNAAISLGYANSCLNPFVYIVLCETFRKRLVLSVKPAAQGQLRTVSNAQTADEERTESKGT
The assay is described as follows: Assessment of in vivo MCHR1 activity (body weight and food consumption in rats with choice of diets). More on the design: species or system Sprague Dawley rats. As for the experimental part:
Male Sprague Dawley (CD, Charles River Breeding Laboratory) rats weighing approximately 240 grams were placed in individual plastic cages with AlphaDri bedding. The room was maintained at 72° F. and 50% humidity, and a 12/12 light dark cycle with lights out at 1600 hours. The rats were conditioned for 5 days prior to the start of the study to having a choice of foods.
Baseline body weight was measured prior to drug treatment on day 0 of the study. Baseline food consumption was the average of the 3 days prior to the first drug treatment. […] All data were evaluated using ANOVA and Fishers PLSD statistics.

[3] abbreviates: 30 mg/kg p.o. daily, day 0 through day 4, male Sprague Dawley rats.
Where [4] appears, read: 45 mg/kg p.o. daily, male Sprague Dawley rats.

Consider `CCc1cc(-n2ccnc(SCCc3ccccc3)c2=O)ccc1OCC(C)(C)O` [Example 65], for which, in assay [1], the Ki is 10 nM.
`Cc1cc(-n2ccnc(SCCc3ccccn3)c2=O)ccc1OCC(C)(C)O` [Example 110, 1-(4-(2-Hydroxy-2-methylpropoxy)-3-methylphenyl)-3-(2-(pyridin-2-yl)ethylthio)pyrazin-2(1H)-one] registered an inhibitory constant (Ki) in assay [1] of 17 nM.
Take `COc1cc(-n2ccnc(SCc3ccccc3)c2=O)ccc1OCC(C)(C)O` [Example 50]: in assay [1], the Ki stood at 4660 nM. This Ki lies about 270-fold higher than the previous one.
With `CC(C)(O)COc1ccc(-n2ccnc(OCCc3ccc(F)cc3)c2=O)cc1Cl` [Example 141], in assay [1], the Ki amounted to 78 nM.
Take `COc1cc(-n2ccnc(Sc3ccc(OC(F)(F)F)cc3)c2=O)ccc1OCC(O)C1CC1` (stereo not shown) [Example 67]: in assay [1], affinity was put at a Ki of 28 nM.
Turning to `COc1cc(-n2ccnc(Sc3ccc(OC(F)(F)F)cc3)c2=O)ccc1OCC(C)(C)O` [Example 38], affinity in assay [1] was put at a Ki of 20 nM.
In assay [1], `Cc1cc(-n2ccnc(Sc3ccc(C(F)(F)F)cc3)c2=O)cnc1OCC(C)(C)O` [Example 170] gave a Ki of 132 nM. This Ki lies about 6.6-fold higher than the previous one.
Same read-out and setting: as for `COc1cc(-n2ccnc(SCCCc3ccccc3)c2=O)ccc1OC[C@@H](C)O` [Example 19], the figure is 3130 nM.
Take `COc1cc(-n2ccnc(Sc3ccc(C(F)(F)F)cc3)c2=O)ccc1OCC(C)O` (stereo not shown) [Example 71]: the affinity in assay [1] corresponds to a Ki of 62 nM.
For `COc1cc(-n2ccnc(Sc3ccc(C(F)(F)F)cc3)c2=O)ccc1OCC(C)(C)OC(=O)CN` [Example 193, 1-(2-Methoxy-4-(2-oxo-3-(4-(trifluoromethyl)phenylthio)pyrazin-1(2H)-yl)phenoxy)-2-methylpropan-2-yl 2-aminoacetate], the “Weight Reduction versus Vehicle” value in assay [2] (3 mg/kg p.o. daily, day 0 through day 4, male Sprague Dawley rats) was determined as 0.7%; in assay [2] (10 mg/kg p.o. daily, day 0 through day 4, male Sprague Dawley rats) it was 2.1%; in assay [2] (setting [3]) it was 3.4%.
As to `CC(C)(O)COc1ncc(-n2ccnc(SCCc3ccccn3)c2=O)cc1Cl` [Example 169], the Ki in assay [1] was 1290 nM.
In the case of `COc1ccc(-n2ccnc(Sc3ccc(OC(F)(F)F)cc3)c2=O)cc1OC` [Example 10], the Ki in assay [1] was found to be 141 nM.
For `COc1cc(-n2ccnc(Sc3ccccc3C(F)(F)F)c2=O)ccc1OCC(C)(C)O` [Example 40], in assay [1], the affinity, expressed as Ki, was 3220 nM. Against the preceding compound, the Ki is about 23-fold higher.
Regarding `COc1cc(-n2ccnc(Sc3ccccc3)c2=O)ccc1OCC(C)(C)O` [Example 49], the Ki in assay [1] is 3040 nM.
Same read-out and setting: as for `COc1cc(-n2ccnc(Sc3nc4ccc(Cl)cc4s3)c2=O)ccc1OCC(C)(C)O` [Example 59], the figure is 125 nM.
The compound `CCc1cc(-n2ccnc(OCCc3ccc(Cl)cc3)c2=O)ccc1OCC(C)(C)O` [Example 151] registered a Ki in assay [1] of 64 nM. Compared with the last compound, the Ki is about 2-fold lower.
`COc1cc(-n2ccnc(SCCc3ccncc3)c2=O)ccc1OCC(C)(C)O` [Example 28]: in assay [1], the affinity corresponds to a Ki of 3150 nM.
In assay [1], `CC(C)(O)COc1ccc(-n2ccnc(Sc3ccc(C(F)(F)F)cc3)c2=O)cn1` [Example 157] showed a Ki of 1730 nM.
The compound `COc1cc(-n2ccnc(SCCc3cccc(F)c3)c2=O)ccc1OCC(C)(C)O` [Example 131] gave a Ki in assay [1] of 18 nM.
In turn, `COc1ccc(-n2ccnc(SCCc3ccc(Cl)cc3)c2=O)cc1OC` [Example 3] yielded a Ki in assay [1] of 576 nM.
As to `COc1cc(-n2ccnc(Sc3ccc(C(F)(F)F)cc3)c2=O)ccc1OCC(C)(C)O` [Example 36], the Ki in assay [1] was found to be 33 nM.
On to `Cc1cc(-n2ccnc(SCCc3ccc(F)cc3)c2=O)ccc1OCC(C)(C)O` [Example 124], for which affinity in assay [1] was put at a Ki of 9 nM.
For the compound `Cc1cc(=O)n(CC(C)(C)O)c2ccc(-n3ccnc(Sc4ccc(OC(F)(F)F)cc4)c3=O)cc12` [Example 178], in assay [1], the Ki was determined as 290 nM.
With `Cc1cc(-n2ccnc(OCCc3cccc(Cl)c3)c2=O)ccc1OCC(C)(C)O` [Example 155], the affinity in assay [1], expressed as Ki, was 45 nM.
Same read-out and setting: as for `Cc1cc(-n2ccnc(Sc3ccc(C(F)(F)F)cn3)c2=O)ccc1OCC(C)(C)O` [Example 95, 1-(4-(2-Hydroxy-2-methylpropoxy)-3-methylphenyl)-3-(5-(trifluoromethyl)pyridin-2-ylthio)pyrazin-2(1H)-one], the figure is 41 nM; as for `CCc1cc(-n2ccnc(SCCc3ccc(F)cc3)c2=O)ccc1OCC(C)(C)O` [Example 125], 17 nM.
The compound `Cc1cc(-n2ccnc(SCCc3ccccc3)c2=O)ccc1OCC(C)(C)O` [Example 113, 1-(4-(2-Hydroxy-2-methylpropoxy)-3-methylphenyl)-3-(phenethylthio)pyrazin-2(1H)-one] came in with a Ki in assay [1] of 8 nM. Besides, in assay [2] (setting [4]), the “Weight Reduction versus Vehicle” value came to 4.2%.
Consider `Cc1cc(-n2ccnc(SCCc3ccccc3)c2=O)cnc1OCC(C)(C)O` [Example 172], for which, in assay [1], the Ki came out at 85 nM.
With `COc1cc(-n2ccnc(Sc3ccc(C(F)(F)F)cc3)c2=O)ccc1OCC(C)OC(=O)[C@@H](N)C(C)C` (stereo in doubt) [Example 202, 1-(2-Methoxy-4-(2-oxo-3-(4-(trifluoromethyl)phenylthio)pyrazin-1(2H)-yl)phenoxy)propan-2-yl 2-amino-3-methylbutanoate], in assay [2] (setting [3]), the “Weight Reduction versus Vehicle” value is given as 2.2%.
For the compound `COc1cc(-n2ccnc(SCCc3ccccn3)c2=O)ccc1OCC(C)(C)O` [Example 27, 1-(4-(2-Hydroxy-2-methylpropoxy)-3-methoxyphenyl)-3-(2-(pyridin-2-yl)-ethylthio)pyrazin-2(1H)-one], in assay [1], the Ki was determined as 63 nM. Further, the “Weight Reduction versus Vehicle” value in assay [2] (setting [4]) was 4.1%.
`COc1cc(-n2ccnc(Sc3ccc(C(F)(F)F)cc3)c2=O)ccc1O[C@H]1COC[C@H]1O` [Example 69]: the Ki in assay [1] was 49 nM.
Take `COc1cc(-n2ccnc(SC(C)Cc3ccccc3)c2=O)ccc1OCC(C)(C)O` (stereo not shown) [Example 46]: the affinity in assay [1], expressed as Ki, was 232 nM.
Still for that read-out and setting: as for `COc1cccc(Sc2nccn(-c3ccc(OCC(C)(C)O)c(OC)c3)c2=O)c1` [Example 39], the figure is 1580 nM.
